Reference: ChEMBL document CHEMBL5131467, “Multivalent peptide dendrimers inhibit the fusion of viral-cellular membranes and the cellular NF-κB signaling pathway” (Eur J Med Chem, 2022)
Active and inactive are the calls of the source. The calls are words filed in the database; no cut-off is given here. Where a SMILES comes first, the peptide text is derived from it. Bridges are numbered along the chain shown (N, C = ends). Roman numbers before positions name the chains, in order. Side-chain parts run from the residue outwards. The star is where a group is joined. Acetyl(2-naphthyl) = O=C(Cc1ccc2ccccc2c1)*

What was measured:
[1] = Cytotoxicity against MDCK cells by CCK-8 assay; assay type: toxicity, cell-based, Canis lupus familiaris; details: dog
Influenza A virus [2] = experiment: Antiviral activity against Influenza A virus (A/Puerto Rico/8/1934(H1N1)) infected in MDCK cells assessed as reduction in virus induced cytopathic effect pre-treated with virus followed by cell infection for 1 hr by MTT assay; assay type: functional, organism-based
Influenza A virus [3] = experiment: Antiviral activity against Influenza A virus (A/Puerto Rico/8/1934(H1N1)) infected in MDCK cells assessed as reduction in virus induced cytopathic effect during infection incubated for 1 hr by MTT assay; assay type: functional, organism-based
Influenza A virus [4] = experiment: Antiviral activity against Influenza A virus (A/Puerto Rico/8/1934(H1N1)) infected in MDCK cells assessed as reduction in virus induced cytopathic effect after infection incubated for 1 hr by MTT assay; assay type: functional, organism-based
Influenza A virus [5] = experiment: Antiviral activity against Influenza A virus (A/Puerto Rico/8/1934(H1N1)) infected in MDCK cells assessed as reduction in virus induced cytopathic effect pretreated with compound incubated for 1 hrs by MTT assay; assay type: functional, organism-based
[6] = Cytotoxicity against MDCK cells incubated for 1 hr by MTT assay; assay type: toxicity, cell-based, Canis lupus familiaris; details: dog
[7] = Selectivity index, ratio of CC50 for MDCK cells to IC50 antiviral activity against Influenza A virus (A/Puerto Rico/8/1934(H1N1)) infected in MDCK cells assessed as reduction in virus induced cytopathic effect pre-treated with virus; assay type: toxicity, cell-based; details: dog, read-out: Selectivity Index
RAW264.7 [8] = experiment: Anti-inflammatory activity against mouse RAW264.7 cells assessed as reduction in LPS induced TNF alpha level at 1 ug/ml by ELISA method; assay type: functional; details: dose 1 µg/ml
Influenza A virus [9] = experiment: Antiviral activity against Influenza A virus 699(H3) clinical isolate infected in MDCK cells incubated for 1 hr by MTT assay; assay type: functional, organism-based
RAW264.7 [10] = experiment: Anti-inflammatory activity against mouse RAW264.7 cells assessed as reduction in Influenza A virus (A/Puerto Rico/8/1934(H1N1)) induced TNF alpha level at 5 ug/ml by ELISA method; assay type: functional; details: dose 5 µg/ml
RAW264.7 [11] = experiment: Anti-inflammatory activity against mouse RAW264.7 cells assessed as reduction in LPS induced TNF alpha level at 5 ug/ml by ELISA method; assay type: functional; details: dose 5 µg/ml
Influenza B virus = experiment: Antiviral activity against Influenza B virus 699[…] clinical isolate infected in MDCK cells incubated for 1 hr by MTT assay; assay type: functional, organism-based
Influenza A virus [12] = experiment: Antiviral activity against Influenza A virus A/Aichi/2/68(H3N2) infected in MDCK cells incubated for 1 hr by MTT assay; assay type: functional, organism-based
RAW264.7 [13] = experiment: Anti-inflammatory activity against mouse RAW264.7 cells assessed as reduction in Influenza A virus (A/Puerto Rico/8/1934(H1N1)) induced TNF alpha level at 1 ug/ml by ELISA method; assay type: functional; details: dose 1 µg/ml
Influenza A virus [14] = experiment: Antiviral activity against Influenza A virus A/FM/1/47 infected in MDCK cells incubated for 1 hr by MTT assay; assay type: functional, organism-based; details: A/FM/1/47, MDCK
RAW264.7 [15] = experiment: Anti-inflammatory activity against mouse RAW264.7 cells assessed as reduction in influenza A virus induced TNF alpha level at 5 ug/ml by qRT- PCR; assay type: functional, cell-based; details: dose 5.0 µg/ml
RAW264.7 [16] = experiment: Anti-inflammatory activity against LPS induced mouse RAW264.7 cells assessed as suppression of NF kappa B expression level at 5 ug/ml by luciferase reporter assay; assay type: functional, cell-based; details: dose 5.0 µg/ml
Mus musculus [17] = experiment: Antiviral activity against Kunming mouse infected with Influenza A virus (A/Puerto Rico/8/1934(H1N1)) assessed as increase in body weight at 5 mg/kg, ip measured after 15 days (reference value: 178.7%); assay type: functional; details: time 15 day
Influenza A virus [18] = experiment: Antiviral activity against Influenza A virus (A/Puerto Rico/8/1934(H1N1)) infected in MDCK cells assessed as reduction in viral nucleoprotein expression level at 2.5 ug/ml pre-treated with virus measured after 24 hrs post infection by indirect immunofluorescence assay; assay type: functional, organism-based; details: dose 2.5 µg/ml
RAW264.7 [19] = experiment: Anti-inflammatory activity against mouse RAW264.7 cells assessed as reduction in LPS induced IL-1 beta level at 5 ug/ml by qRT-PCR analysis; assay type: functional, cell-based; details: dose 5.0 µg/ml
RAW264.7 [20] = experiment: Anti-inflammatory activity against mouse RAW264.7 cells assessed as reduction in influenza A virus induced IL-1 beta level at 5 ug/ml by qRT- PCR; assay type: functional, cell-based; details: dose 5.0 µg/ml
Influenza A virus [21] = experiment: Antiviral activity against Influenza A virus (A/Puerto Rico/8/1934(H1N1)) infected in MDCK cells assessed as reduction in viral nucleoprotein expression level at 2.5 ug/ml during infection measured after 24 hrs post infection by indirect immunofluorescence assay; assay type: functional, organism-based; details: dose 2.5 µg/ml
Influenza A virus [22] = experiment: Antiviral activity against Influenza A virus (A/Puerto Rico/8/1934(H1N1)) infected in MDCK cells assessed as reduction in M1 mRNA level at 1 ug/ml measured after 24 hrs post infection by qRT-PCR analysis; assay type: functional, organism-based; details: dose 1.0 µg/ml
Hemagglutinin = Hemagglutinin (Influenza A virus, UniProt B4URE7); experiment: Binding affinity to Influenza A Puerto Rico/8/1934/H1N1 hemagglutin assessed as dissociation constant by surface plasmon resonance assay
Influenza A virus [23] = experiment: Antiviral activity against Influenza A virus (A/Puerto Rico/8/1934(H1N1)) infected in MDCK cells assessed as reduction in HA mRNA level at 1 ug/ml measured after 24 hrs post infection by qRT-PCR analysis; assay type: functional, organism-based; details: dose 1.0 µg/ml
Mus musculus [24] = experiment: Antiviral activity against Kunming mouse infected with Influenza A virus (A/Puerto Rico/8/1934(H1N1)) assessed as survival rate at 5 mg/kg, ip administered once a day for 5 days relative to control; assay type: functional; details: 120 h, time 5 day
RAW264.7 [25] = experiment: Anti-inflammatory activity against mouse RAW264.7 cells assessed as reduction in LPS induced TNF alpha level at 5 ug/ml by qRT-PCR analysis; assay type: functional, cell-based; details: dose 5.0 µg/ml
RAW264.7 [26] = experiment: Anti-inflammatory activity against mouse RAW264.7 cells assessed as reduction in influenza A virus induced IL-6 level at 5 ug/ml by qRT- PCR; assay type: functional, cell-based; details: dose 5.0 µg/ml
RAW264.7 [27] = experiment: Anti-inflammatory activity against mouse RAW264.7 cells assessed as reduction in LPS induced IL-6 level at 5 ug/ml by qRT-PCR analysis; assay type: functional, cell-based; details: dose 5.0 µg/ml
Influenza A virus [28] = experiment: Antiviral activity against Influenza A virus (A/Puerto Rico/8/1934(H1N1)) infected in MDCK cells assessed as reduction in viral nucleoprotein expression level at 2.5 ug/ml pretreated with compound measured after 24 hrs post infection by indirect immunofluorescence assay; assay type: functional, organism-based; details: dose 2.5 µg/ml
RAW264.7 [29] = experiment: Anti-inflammatory activity against Influenza A virus (A/Puerto Rico/8/1934(H1N1)) induced mouse RAW264.7 cells assessed as suppression of NF kappa B expression level 5 ug/ml by luciferase reporter assay; assay type: functional, cell-based; details: dose 5.0 µg/ml

Sequence of Hemagglutinin (B4URE7 whole entry): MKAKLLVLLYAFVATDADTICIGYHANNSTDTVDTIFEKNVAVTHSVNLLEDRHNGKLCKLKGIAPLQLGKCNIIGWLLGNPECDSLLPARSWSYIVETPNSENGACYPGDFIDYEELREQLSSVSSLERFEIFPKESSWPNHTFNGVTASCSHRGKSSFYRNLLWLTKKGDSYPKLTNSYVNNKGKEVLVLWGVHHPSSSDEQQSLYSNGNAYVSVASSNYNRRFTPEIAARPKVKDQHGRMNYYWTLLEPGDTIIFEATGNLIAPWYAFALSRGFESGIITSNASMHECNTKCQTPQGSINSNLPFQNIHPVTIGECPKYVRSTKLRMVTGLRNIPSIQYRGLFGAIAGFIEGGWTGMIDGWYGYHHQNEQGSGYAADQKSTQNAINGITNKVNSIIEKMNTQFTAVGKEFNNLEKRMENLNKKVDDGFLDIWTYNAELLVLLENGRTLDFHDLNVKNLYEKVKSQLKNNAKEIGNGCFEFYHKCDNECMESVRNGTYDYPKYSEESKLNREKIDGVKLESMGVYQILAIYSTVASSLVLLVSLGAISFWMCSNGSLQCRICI

| Structure (SMILES) | CC50 [1] [µM] | IC50 (Influenza A virus [2]) [µM] | IC50 (Influenza A virus [3]) [µM] | IC50 (Influenza A virus [4]) [µM] | IC50 (Influenza A virus [5]) [µM] | CC50 at 1 h [6] [µM] | selectivity ratio [7] | IC50 (Influenza A virus [9]) [µM] | IC50 (Influenza B virus) [µM] | IC50 (Influenza A virus [12]) [µM] | IC50 (Influenza A virus [14]) [µM] | also measured |
| --- | --- | --- | --- | --- | --- | --- | --- | --- | --- | --- | --- | --- |
| CC(C)CCC[C@@H](C)[C@H]1CC[C@H]2[C@@H]3CC=C4C[C@@H](OC(=O)CN[C@@H](CCCCN)C(=O)N[C@@H](CCCCN)C(=O)N[C@@H](Cc5c[nH]c6ccccc56)C(=O)N[C@@H](CCCCN)C(N)=O)CC[C@]4(C)[C@H]3CC[C@]12C | 39.1 | 1.61 | > 5 | > 10 | > 10 | 44.3 | 30.5 | – | – | – | – | – |
| CCOC(=O)c1c(CSc2ccccc2)n(C)c2cc(Br)c(O)c(CN(C)C)c12.Cl | – | 0.36 | – | – | – | 32.9 | 91.4 | 1.56 | 0.41 | 1.18 | 1.45 | Activity (RAW264.7 [8]): 320.5 pg/mL; Activity (RAW264.7 [10]): 294.9 pg/mL; Activity (RAW264.7 [11]): 400.5 pg/mL; Activity (RAW264.7 [13]): 206.5 pg/mL |
| NCCCC[C@H](NC(=O)Cc1ccc2ccccc2c1)C(=O)N[C@@H](CCCCN)C(=O)N[C@@H](Cc1c[nH]c2ccccc12)C(=O)N[C@@H](CCCCN)C(=O)NCCCC[C@H](NC(=O)[C@H](CCCCN)NC(=O)[C@H](Cc1c[nH]c2ccccc12)NC(=O)[C@H](CCCCN)NC(=O)[C@H](CCCCN)NC(=O)Cc1ccc2ccccc2c1)C(=O)NCCCC[C@H](NC(=O)[C@H](CCCCNC(=O)[C@H](CCCCN)NC(=O)[C@H](Cc1c[nH]c2ccccc12)NC(=O)[C@H](CCCCN)NC(=O)[C@H](CCCCN)NC(=O)Cc1ccc2ccccc2c1)NC(=O)[C@H](CCCCN)NC(=O)[C@H](Cc1c[nH]c2ccccc12)NC(=O)[C@H](CCCCN)NC(=O)[C@H](CCCCN)NC(=O)Cc1ccc2ccccc2c1)C(=O)NCC(=O)O (I: {Acetyl(2-naphthyl)}-KKWKK([Lys-Trp-Lys-Lys-Acetyl(2-naphthyl)])KG-OH / II: {Acetyl(2-naphthyl)}-KKWKK([Lys-Trp-Lys-Lys-Acetyl(2-naphthyl)]); amide I:6-II:C) | 4.41 | 0.19 | 0.24 | 7.69 | 0.34 | 6.67 | 35.5 | 0.21 | 0.22 | 0.33 | 0.23 | Activity (RAW264.7 [15]): Active; Activity (RAW264.7 [16]): Active; Activity (Mus musculus [17]): 135.8%; Activity (Influenza A virus [18]): Active; Activity (RAW264.7 [19]): Active; Activity (RAW264.7 [20]): Active; Activity (Influenza A virus [21]): Active; Activity (Influenza A virus [22]): Active; Kd (Hemagglutinin): 7.42 pM; Activity (Influenza A virus [23]): Active; survival at 5 mg/kg (Mus musculus [24]): 40%; Activity (RAW264.7 [25]): Active; Activity (RAW264.7 [26]): Active; Activity (RAW264.7 [27]): Active; Activity (Influenza A virus [28]): Active; Activity (RAW264.7 [29]): Active |
| NCCCC[C@H](NC(=O)[C@H](Cc1c[nH]c2ccccc12)NC(=O)[C@H](CCCCN)NC(=O)[C@H](CCCCN)NC(=O)Cc1ccc2ccccc2c1)C(=O)O ({Acetyl(2-naphthyl)}-KKWK-OH) | 200 | 4.04 | – | – | – | > 200 | – | – | – | – | – | – |
